This note sets out measurements from ChEMBL document CHEMBL3627711, “Highly Substituted Cyclopentane-CMP Conjugates as Potent Sialyltransferase Inhibitors” (J Med Chem, 2015).

For assay [1], the target named is T1, Beta-galactoside alpha-2,6-sialyltransferase 1 (Homo sapiens) (UniProt P15907).
T1 sequence (whole entry): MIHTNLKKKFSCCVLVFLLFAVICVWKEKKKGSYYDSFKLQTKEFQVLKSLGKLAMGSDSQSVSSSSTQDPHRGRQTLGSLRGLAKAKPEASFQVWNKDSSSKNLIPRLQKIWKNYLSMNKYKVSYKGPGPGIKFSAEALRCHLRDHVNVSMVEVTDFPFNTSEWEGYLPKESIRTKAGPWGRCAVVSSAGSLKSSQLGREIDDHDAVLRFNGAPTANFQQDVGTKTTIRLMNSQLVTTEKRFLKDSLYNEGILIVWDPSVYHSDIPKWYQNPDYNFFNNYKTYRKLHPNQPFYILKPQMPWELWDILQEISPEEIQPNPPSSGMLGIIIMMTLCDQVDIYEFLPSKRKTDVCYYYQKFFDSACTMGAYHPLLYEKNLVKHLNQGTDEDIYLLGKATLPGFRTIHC
In words: Inhibition of human recombinant ST6Gal-1 assessed as trisaccharide formation using CMP-Neu5Ac and p-nitrophenyl LacNAc as donar and acceptor at 10 uM by RP-HPLC analysis.

In assay [2] the target is T2, Beta-galactoside alpha-2,6-sialyltransferase 1 (Homo sapiens, UniProt P15907).
T2 sequence (P15907 whole entry): T1 sequence (whole entry)
In words: Competitive inhibition of human recombinant ST6Gal-1 using CMP-Neu5Ac and p-nitrophenyl LacNAc as donar and acceptor by Lineweaver-Burk double reciprocal plot analysis.

The target of assay [3] is T1, Beta-galactoside alpha-2,6-sialyltransferase 1 (Homo sapiens). Nature of the assay: Ratio of CMP-Neu5Ac Km to compound Ki for human recombinant ST6Gal-1.
A short description of assay [4]: Inhibition of rat alpha-2,6-sialyltransferase.

Each structure is given as a SMILES string. Several values for one entry are separate records, joined by “and”; a condition that tells them apart may be missing. Equal values may be shown once.

For orientation: inhibition means the share of the control response that was lost under treatment. As usually defined, the Ki is the dissociation constant of the complex between target and ligand, obtained from inhibition or displacement. Regarding `CC(=O)NC[C@@H]1C[C@@H](C(OP(=O)(O)OC[C@H]2O[C@@H](n3ccc(N)nc3=O)[C@H](O)[C@@H]2O)P(=O)(O)O)C[C@H]1OCc1ccccc1` (stereo partly drawn), the inhibition in assay [1] is 46.3% and 70.8%. In addition, in assay [2], the Ki is 865 nM. In assay [3], the Ratio turned out to be 48.1.

Take `Nc1ccn([C@@H]2O[C@H](COP(=O)(O)OC(c3cccc(Oc4ccccc4)c3)P(=O)(O)O)[C@@H](O)[C@H]2O)c(=O)n1` (stereo partly drawn): the inhibition in assay [1] amounted to 98.1%. Also, the Ki in assay [2] worked out at 19 nM. Also, in assay [3], the Ratio came to 2190.

For `CC(=O)N[C@H]1[C@H](Oc2ccccc2)OC(C(OP(=O)(O)OC[C@H]2O[C@@H](n3ccc(N)nc3=O)[C@H](O)[C@@H]2O)P(=O)(O)O)=C[C@@H]1O` (stereo partly drawn), in assay [4], the Ki was found to be 29 nM.

As to `Nc1ccn([C@@H]2O[C@H](COP(=O)(O)OC(C3CCCC3)P(=O)(O)O)[C@@H](O)[C@H]2O)c(=O)n1` (stereo in doubt; 2l), the inhibition in assay [1] is 12.8%.

For the molecule `Nc1ccn([C@@H]2O[C@H](COP(=O)(O)OC(C3CCCC3)P(=O)(O)O)[C@@H](O)[C@H]2O)c(=O)n1` (stereo in doubt; 2s) [listing 1 of 2 here], the Ki in assay [2] is 5850 nM.

As for `Nc1ccn([C@@H]2O[C@H](COP(=O)(O)OC(C3CCCC3)P(=O)(O)O)[C@@H](O)[C@H]2O)c(=O)n1` (stereo in doubt; 2s) [listing 2 of 2 here], the inhibition in assay [1] was 43.2%. For the same molecule, the Ratio in assay [3] was determined as 7.1.

For the molecule `Nc1ccn([C@@H]2O[C@H](COP(=O)(O)OC([C@H]3C[C@@H](O)[C@@H](O)C3)P(=O)(O)O)[C@@H](O)[C@H]2O)c(=O)n1` (stereo in doubt; 3l), the inhibition in assay [1] came to 13%.

In the case of `Nc1ccn([C@@H]2O[C@H](COP(=O)(O)OC([C@H]3C[C@@H](O)[C@@H](O)C3)P(=O)(O)O)[C@@H](O)[C@H]2O)c(=O)n1` (stereo in doubt; 3s), in assay [1], the inhibition was 31%.

As for `CC(=O)N[C@H]1C[C@H](C(OP(=O)(O)OC[C@H]2O[C@@H](n3ccc(N)nc3=O)[C@H](O)[C@@H]2O)P(=O)(O)O)C[C@H]1O` (stereo in doubt; 4Sl), the inhibition in assay [1] is 9.99%.

For `CC(=O)N[C@H]1C[C@H](C(OP(=O)(O)OC[C@H]2O[C@@H](n3ccc(N)nc3=O)[C@H](O)[C@@H]2O)P(=O)(O)O)C[C@H]1O` (stereo in doubt; 4Ss) [listing 1 of 2 here], the Ki in assay [2] worked out at 4310 nM.

`CC(=O)N[C@H]1C[C@H](C(OP(=O)(O)OC[C@H]2O[C@@H](n3ccc(N)nc3=O)[C@H](O)[C@@H]2O)P(=O)(O)O)C[C@H]1O` (stereo in doubt; 4Ss) [listing 2 of 2 here]: the inhibition in assay [1] is 50.3%. In assay [3], the Ratio worked out at 9.6.

For the molecule `CC(=O)N[C@H]1C[C@@H](C(OP(=O)(O)OC[C@H]2O[C@@H](n3ccc(N)nc3=O)[C@H](O)[C@@H]2O)P(=O)(O)O)C[C@H]1OCc1ccccc1` (stereo in doubt; 5Rl), in assay [1], the inhibition is 22.1%.

Consider `CC(=O)N[C@H]1C[C@@H](C(OP(=O)(O)OC[C@H]2O[C@@H](n3ccc(N)nc3=O)[C@H](O)[C@@H]2O)P(=O)(O)O)C[C@H]1OCc1ccccc1` (stereo in doubt; 5Rs) [listing 1 of 2 here], for which the inhibition constant (Ki) in assay [2] is 1510 nM.

As for `CC(=O)N[C@H]1C[C@@H](C(OP(=O)(O)OC[C@H]2O[C@@H](n3ccc(N)nc3=O)[C@H](O)[C@@H]2O)P(=O)(O)O)C[C@H]1OCc1ccccc1` (stereo in doubt; 5Rs) [listing 2 of 2 here], the inhibition in assay [1] amounted to 65.9%. For the same molecule, the Ratio in assay [3] amounted to 27.6.

On to `CC(=O)N[C@H]1C[C@H](C(OP(=O)(O)OC[C@H]2O[C@@H](n3ccc(N)nc3=O)[C@H](O)[C@@H]2O)P(=O)(O)O)C[C@H]1OCc1ccccc1` (stereo in doubt; 5Sl) [listing 1 of 2 here], for which, in assay [2], the Ki is 436 nM.

`CC(=O)N[C@H]1C[C@H](C(OP(=O)(O)OC[C@H]2O[C@@H](n3ccc(N)nc3=O)[C@H](O)[C@@H]2O)P(=O)(O)O)C[C@H]1OCc1ccccc1` (stereo in doubt; 5Sl) [listing 2 of 2 here]: the inhibition in assay [1] turned out to be 75.3%. Besides, in assay [3], the Ratio stood at 95.5.

For `CC(=O)N[C@H]1C[C@H](C(OP(=O)(O)OC[C@H]2O[C@@H](n3ccc(N)nc3=O)[C@H](O)[C@@H]2O)P(=O)(O)O)C[C@H]1OCc1ccccc1` (stereo in doubt; 5Ss) [listing 1 of 2 here], the Ki in assay [2] stood at 1630 nM.

Consider `CC(=O)N[C@H]1C[C@H](C(OP(=O)(O)OC[C@H]2O[C@@H](n3ccc(N)nc3=O)[C@H](O)[C@@H]2O)P(=O)(O)O)C[C@H]1OCc1ccccc1` (stereo in doubt; 5Ss) [listing 2 of 2 here], for which the inhibition in assay [1] turned out to be 63.9%. In assay [3], the Ratio turned out to be 25.6.

For the molecule `CC(=O)NC[C@@H]1CCC(OP(=O)(O)OC[C@H]2O[C@@H](n3ccc(N)nc3=O)[C@H](O)[C@@H]2O)(P(=O)(O)O)[C@H]1OCc1ccccc1` (stereo in doubt; 48l) [listing 1 of 2 here], the Ki in assay [2] came to 28 nM.

As for `CC(=O)NC[C@@H]1CCC(OP(=O)(O)OC[C@H]2O[C@@H](n3ccc(N)nc3=O)[C@H](O)[C@@H]2O)(P(=O)(O)O)[C@H]1OCc1ccccc1` (stereo in doubt; 48l) [listing 2 of 2 here], in assay [1], the inhibition amounted to 97.5%. Besides, the Ratio in assay [3] was determined as 1490.

Turning to `CC(=O)NC[C@@H]1CCC(OP(=O)(O)OC[C@H]2O[C@@H](n3ccc(N)nc3=O)[C@H](O)[C@@H]2O)(P(=O)(O)O)[C@H]1OCc1ccccc1` (stereo in doubt; 48s) [listing 1 of 2 here], the Ki in assay [2] came to 477 nM.

Regarding `CC(=O)NC[C@@H]1CCC(OP(=O)(O)OC[C@H]2O[C@@H](n3ccc(N)nc3=O)[C@H](O)[C@@H]2O)(P(=O)(O)O)[C@H]1OCc1ccccc1` (stereo in doubt; 48s) [listing 2 of 2 here], in assay [1], the inhibition worked out at 74.1%. In assay [3], the Ratio worked out at 87.3.
